Active and inactive are the calls of the source. The rule behind the calls is not given here.
Tests used:
Type in all cases: functional, cell-based
3Y1 cell line [1] = assay: Induction of morphological changes in rat 3Y1 cells assessed as protrusions in cell membrane at 1.9 uM measured after 5 mins to 48 hrs by IncuCyte live cell imaging method
3Y1 cell line [2] = assay: Induction of morphological changes in rat 3Y1 cells assessed as protrusions in cell membrane at 0.05 uM measured after 5 mins to 48 hrs by IncuCyte live cell imaging method
3Y1 cell line [3] = assay: Induction of morphological changes in rat 3Y1 cells assessed as protrusions in cell membrane at 41 uM measured after 5 mins to 48 hrs by IncuCyte live cell imaging method
3Y1 cell line [4] = assay: Induction of morphological changes in rat 3Y1 cells assessed as protrusions in cell membrane at 4.2 uM measured after 5 mins by IncuCyte live cell imaging method
3Y1 cell line [5] = assay: Cytotoxicity against rat 3Y1 cells after 72 hrs by MTT assay; settings: 3Y1, 72 h
3Y1 cell line [6] = assay: Induction of morphological changes in rat 3Y1 cells assessed as protrusions in cell membrane at 2.7 uM measured after 5 mins to 48 hrs by IncuCyte live cell imaging method

C/C1=C/C(=O)O[C@@H]2C[C@@H](CC[C@H](C)/C=C\C=C\CC1)O[C@@](O)([C@@H]1CSC(=O)N1)C2
Activity (3Y1 cell line [1]): Active

CO[C@H]1C[C@H](CC[C@H](C)[C@H](O)[C@H](C)[C@H]2OC(=O)/C(C)=C/C[C@H](O)C[C@@H]3C=CC[C@@H](C[C@H](OC)[C@@H](C)[C@@H](O)C[C@@H](O)[C@H](C)[C@@H]([C@@H](C)[C@@H](O)[C@@H](C)CC[C@H]4C[C@H](OC)C[C@H](C)O4)OC(=O)/C(C)=C/C[C@H](O)C[C@@H]4C=CC[C@@H](C[C@H](OC)[C@@H](C)[C@@H](O)C[C@@H](O)[C@@H]2C)O4)O3)O[C@@H](C)C1
Activity (3Y1 cell line [2]): Active

C=C1[C@@H](C)[C@H]2[C@H](Cc3ccccc3)NC(=O)[C@]23OC(=O)/C=C/[C@@H](O)CCC[C@@H](C)C/C=C/[C@H]3[C@@H]1O
Activity (3Y1 cell line [3]): Active

CO[C@@H]([C@@H](C)[C@@H](CC[C@H](C)[C@H](C[C@@H]1OC(=O)C[C@@H](O)C/C=C/C(=O)[C@H](C)[C@H](OC)c2coc(n2)-c2coc(n2)-c2coc(n2)/C=C/C[C@H](OC)[C@H]1C)OC)OC(=O)[C@@H](C)OC)[C@H](C)/C=C/N(C)C=O
Activity (3Y1 cell line [4]): Active | IC50 (3Y1 cell line [5]): 7 nM

COC[C@@H](OC)C(=O)O[C@H](CC[C@H](C)[C@H](C[C@@H]1OC(=O)C[C@@H](O)C/C=C/C(=O)[C@H](C)[C@H](OC)c2coc(n2)-c2coc(n2)-c2coc(n2)/C=C/C[C@H](OC)[C@H]1C)OC)[C@H](C)[C@H](OC(C)=O)[C@H](C)/C=C/N(C)C=O
Activity (3Y1 cell line [6]): Active

CO[C@H]([C@H](C)/C=C/N(C)C=O)[C@@H](C)C(=O)CC[C@H](C)[C@H](C[C@@H]1OC(=O)C[C@@H](O)C/C=C/C(=O)[C@H](C)[C@H](OC)c2coc(n2)-c2coc(n2)-c2coc(n2)/C=C/C[C@H](OC)[C@H]1C)OC
IC50 (3Y1 cell line [5]): 7 nM

— ChEMBL document CHEMBL4251716, “Miuramides A and B, Trisoxazole Macrolides from a Mycale sp. Marine Sponge That Induce a Protrusion Phenotype in Cultured Mammalian Cells” (J Nat Prod, 2018)
